Results reported in PubChem BioAssay (NCI).
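Each compound was tested at five concentrations against cells in 96-well plates for 48 hours. Here, GI50 denotes the concentration required for 50% inhibition of growth. TGI denotes the concentration required for complete inhibition of growth.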

Columns and labels:
Assay in all cases: NCI anticancer screen, dose series, 48 h
COLO 205 colon = system: COLO 205 colon
HCC-2998 colon = system: HCC-2998 colon
HOP-62 NSCLC = system: HOP-62 NSCLC
HT29 colon = system: HT29 colon
NCI-H23 lung = system: NCI-H23 lung
NCI-H460 lung = system: NCI-H460 lung
OVCAR-5 ovarian = system: OVCAR-5 ovarian
RPMI-8226 leukemia = system: RPMI-8226 leukemia
TK-10 renal = system: TK-10 renal
ACHN renal = system: ACHN renal

| SMILES | TGI (COLO 205 colon) [µM] | TGI (HCC-2998 colon) [µM] | TGI (HOP-62 NSCLC) [µM] | TGI (HT29 colon) [µM] | TGI (NCI-H23 lung) [µM] | TGI (NCI-H460 lung) [µM] | TGI (OVCAR-5 ovarian) [µM] | TGI (RPMI-8226 leukemia) [µM] | TGI (TK-10 renal) [µM] | TGI (ACHN renal) [µM] | GI50 (ACHN renal) [µM] | GI50 (HCC-2998 colon) [µM] | GI50 (OVCAR-5 ovarian) [µM] | GI50 (RPMI-8226 leukemia) [µM] | GI50 (TK-10 renal) [µM] | GI50 (COLO 205 colon) [µM] | GI50 (HT29 colon) [µM] | GI50 (NCI-H23 lung) [µM] | GI50 (NCI-H460 lung) [µM] | GI50 (HOP-62 NSCLC) [µM] |
| --- | --- | --- | --- | --- | --- | --- | --- | --- | --- | --- | --- | --- | --- | --- | --- | --- | --- | --- | --- | --- |
| CC1=C(C#N)C(N)=C2C(C)=C(C#N)C(N)=C12 | > 100 | > 100 | > 100 | > 100 | > 100 | > 100 | > 100 | > 100 | > 100 |  |  |  |  |  |  |  |  |  |  |  |
| Cc1cc(N(CCC#N)S(=O)(=O)c2ccccc2)ccc1C=O | > 100 | > 100 | > 100 | > 100 | > 100 | > 100 | > 100 | > 100 |  | > 100 |  |  |  |  |  |  |  |  |  |  |
| Cc1nnc([S-])s1.[Au+].c1ccc([PH+](c2ccccc2)c2ccccc2)cc1 |  | 3.36 |  |  |  |  | 3.13 | 5.31 | 3.32 | 3.26 | 1.86 | 1.83 | 1.7 | 1.8 | 1.83 |  |  |  |  |  |
| CCOC(=O)/C=C1\Nc2ccccc2C(c2ccccc2)=NC1OC(C)=O (configuration not stated) | > 100 | > 100 | > 100 | > 100 | > 100 | > 100 |  | > 100 |  | > 100 |  |  |  |  |  |  |  |  |  |  |
| COC(=O)C(CC=O)C(=O)C(=O)Nc1cccc(C(F)(F)F)c1 (configuration not stated) |  | > 100 | > 100 | > 100 | > 100 | > 100 | > 100 | > 100 | > 100 | > 100 |  |  |  |  |  |  |  |  |  |  |
| COc1ccc2cccc(C(=N)c3ccc(C)c4c3CCC4)c2c1 | 25.9 | 23.1 | 20 | 15 | 19.6 | 16.7 | 18.9 |  | 24.2 | 21.7 |  |  |  |  |  |  |  |  |  |  |
| COc1cc2c3c(c1OC)-c1ccccc1C(C(OC(C)=O)c1ccccc1)C3N(C)CC2 (configuration not stated) | > 100 | > 100 |  | > 100 | > 100 | > 100 | > 100 | 80.7 | > 100 | > 100 |  |  |  |  |  |  |  |  |  |  |
| CN1C(=O)c2cc(Cl)nc3c(NC(=O)c4cccc(Cl)c4)c(Cl)c(NC(=O)c4cccc(Cl)c4)c1c23 | 4.01 | 3.41 |  | 4.05 | 5.92 | 5.17 | 30.1 | 32.6 | 5.84 | 3.09 | 1.72 | 1.76 | 12.8 | 3.63 | 2.28 | 1.94 | 1.97 | 2.14 | 2.34 |  |
| CN1CCCC1c1cccnc1.O=C(O)c1ccccc1O.O=C([O-])c1ccccc1[OH2+].O=C([O-])c1ccccc1[OH2+].O=C([O-])c1ccccc1[OH2+].[Mn+2] (configuration not stated) | > 100 |  | > 100 | > 100 | > 100 |  | > 100 | > 100 | > 100 | > 100 | > 100 |  | 63.5 | 92.7 | > 100 | > 100 | > 100 | > 100 |  | > 100 |
| CC1(CC(=O)O)OC2CCCCCC2O1 (configuration not stated) (tested in a mixture with another compound) | > 100 |  | > 100 | > 100 | > 100 | > 100 | > 100 | > 100 | > 100 | > 100 |  |  |  |  |  |  |  |  |  |  |
| COc1c(O)c(OC)c(C(=O)/C=C/c2ccccc2)c(O)c1OC | > 100 | > 100 |  | > 100 |  | 45.8 | > 100 | > 100 | > 100 | 58.1 |  |  |  |  |  |  |  |  |  |  |
| CC(=O)NC1C(OCc2ccccc2)OC(COC(=O)CCCCCCCCCCNC(=O)c2cccc3c(=O)c4ccccc4[nH]c23)C(O)C1OC(C)C(=O)NC(C)C(=O)NC(CCC(N)=O)C(N)=O (configuration not stated) | > 100 |  | > 100 | > 100 | > 100 | > 100 | > 100 | > 100 | > 100 | > 100 |  |  |  |  |  |  |  |  |  |  |
| COC(=O)/C(=N\NC(=O)c1ccccc1O)C(C#N)c1ccc(Cl)cc1 (configuration not stated) | > 100 | 88.7 | 95.8 | > 100 | 76 | > 100 | 90.3 |  | > 100 | > 100 |  |  |  |  |  |  |  |  |  |  |
| S=C(Nc1ccccc1)Nc1[nH]c(=S)sc1-c1nc2ccccc2[nH]1 | > 100 | > 100 | 66.8 | > 100 | > 100 |  | > 100 | > 100 | > 100 | > 100 |  |  |  |  |  |  |  |  |  |  |
| COC(=O)/C(C#N)=C1\N=NNN1CCCN1CCOCC1 | > 100 | > 100 |  | > 100 | > 100 | > 100 |  | > 100 | > 100 | > 100 |  |  |  |  |  |  |  |  |  |  |
| c1ccc(SCCCC(Sc2ccccc2)Sc2ccccc2)cc1 | > 100 | > 100 | > 100 |  | > 100 | > 100 |  | > 100 | > 100 | > 100 |  |  |  |  |  |  |  |  |  |  |
| CC(CS(=O)(=O)Cc1ccccc1)C(N)=O (configuration not stated) | > 100 |  | > 100 | > 100 | > 100 | > 100 | > 100 | > 100 | > 100 | > 100 |  |  |  |  |  |  |  |  |  |  |
| NC(Cc1nn[nH]n1)C(=O)O (configuration not stated) | > 100 |  | > 100 | > 100 | > 100 | > 100 | > 100 | > 100 | > 100 | > 100 |  |  |  |  |  |  |  |  |  |  |
| CN1CC2(CCCCC2)C(O)C12C=CCCC2 (configuration not stated) | > 100 | > 100 | > 100 | > 100 | > 100 |  |  | > 100 | > 100 |  |  |  |  |  |  |  |  |  |  |  |
| CCOC(=O)c1cnc2[nH]c(=O)c3ccccc3n2c1=O | > 100 |  | > 100 | > 100 | > 100 | > 100 | > 100 | > 100 | > 100 | > 100 |  |  |  |  |  |  |  |  |  |  |
| Cc1nnc2n1N=C(CC(=O)c1ccc(O)cc1O)CN2N | 35.8 | > 100 | > 100 | > 100 | > 100 | > 100 | > 100 |  | > 100 | > 100 |  |  |  |  |  |  |  |  |  |  |
| Oc1cccc(-c2nc3ccccc3s2)c1 | > 100 |  | > 100 | 42.9 | 69.6 | > 100 | 51.5 | > 100 |  | > 100 |  |  |  |  |  |  |  |  |  |  |
| O=C(O)c1cc(Cl)cc(NC(=O)C(Cl)Cl)c1Cl | > 100 | > 100 | > 100 | > 100 | > 100 | > 100 |  | > 100 | > 100 | > 100 |  |  |  |  |  |  |  |  |  |  |
